Results published in US10350272B2, “Calcitonin analogues for treating diseases and disorders” (KeyBioscience AG, priority 2015, dated 2019).
Entries after “also recorded” stand apart in the source; their conditions may differ.

Experiments:
high fat diet (HFD) rats = test: 8-week (56 day) treatment study in high fat diet rats with pair-fed controls (body weight, food intake, adipose tissue, liver TAG, adipokines); format: in vivo, rat; conditions: for liver triglyceride / triacylglycerol content: 8 weeks, all dose groups; for body weight: HFD rats, 0.625-10 μg/kg/day, 8 weeks (56 days), vs vehicle and pair-fed
Procedure: To obtain obese rats, male Sprague-Dawley rats aged 12 weeks were placed on a diet consisting of regular rodent chow and a 60 kcal % high-fat diet (no. D12495; Research Diets) for a total of 12 wk. Following the 12 weeks on high fat diet the rats were randomized into treatment groups based on weight.
The second study consisted of the following groups: vehicle, KBP-042 0.625 μg/kg/day, KBP-042 1.25 μg/kg/day, KBP-042 2.5 μg/kg/day, KBP-042 5 μg/kg/day, KBP-042 10 μg/kg/day, pair-fed (calorie restriction) matching the 5 μg/kg/day and pair-fed (calorie restriction) matching the 10 μg/kg/day, to allow assessment of the effect of KBP-042 on bodyweight independent of its effect on food intake.
Throughout the experiment the bodyweight and food intake were monitored, and at termination liver and fat depots were collected for weighing and potential analysis of triglyceride content.
The method is based on Folch et al. At the time of extraction the samples were portioned at 500 mg individually and transferred to glass tubes, followed by the addition of 10 mL 100 μg/mL butylated hydroxytoluene (BHT) in chloroform:methanol 2:1 (v:v), and placed on ice. Each sample was added 150 μL of the internal standard solution. Homogenization was performed using a rotor-stator submersion blender (IKA Ultra-Turrax T25) with the sample tubes submerged in ice-water. The samples were each homogenized for 3×10 seconds with 50 second intervals, where after the homogenate is transferred to 35 mL screw-cap centrifuge tubes. The aggregate was cleaned in 5 mL chloroform:methanol 2:1 in the original glass tube, which was then transferred quantitatively to the homogenate. The homogenate was added 3 mL (0.24 times the total homogenate volume) of 0.73% (w/v) NaCl in MiliQ H2O and mixed, followed by centrifugation at 2800·g for 5 minutes at 4° C., to create a 2-phase system. The lower phase was transferred to a clean 12.5 mL centrifugation tube. The homogenate (the upper phase) was then added 3 mL chloroform:methanol 85:15 and mixed, followed by another centrifugation step. The new lower phase was then isolated and added to the first extract and dried down under nitrogen in a 40° C. water bath, followed by resolubilization in 300 μL chloroform:methanol 2:1. At this point the lipid extracts can be stored at −20° C.
The lipid extracts were fractionated on amino-propyl columns (Phenomenex Strata NH2, product number: 8B-S009-HBJ). The columns were pre-washed with 2×2 mL chloroform:methanol 23:1 (v:v) and left to dry. During fractionation the columns were not allowed to dry. The columns were primed with 2×1 mL hexane followed by application of the lipid extracts. Fraction 1 containing cholesterol esters was eluted with 3 mL Hexane into a clean tube. Fraction 2 containing TAG was eluted using 3 mL hexane:chloroform:ethylacetate 100:5:5 (v:v:v) into a clean tube. Fraction 3 containing DAG, Cholesterol and Ceramide was eluted using 3×2 mL chloroform:methanol 23:1 (v:v) into a new glass. Fraction 4 containing FFA was eluted using 5 mL 2% acetic acid in diethyl ether into a new glass. Fraction 5 containing PL was eluted using 4 mL methanol into a new glass. Fractions 1 and 2 were dried down under nitrogen at 40° C. and re-dissolved in 300 μL chloroform:methanol 95:5 and stored at −20° C. Fraction 4 and half of fraction 5 (fraction 5A) were dried down under nitrogen at 40° C. and re-dissolved in 300 μL chloroform:methanol 2:1 and stored at −20° C. Fraction 3 was equally dried down and re-dissolved in 135 μL chloroform and 67.5 μL isopropanol, transferred to HPLC vials and stored at −20° C. The other half of fraction (fraction 5B) was dried down under nitrogen and re-dissolved in 200 μL chloroform:isopropanol 1:1 (v:v), transferred to HPLC vials and stored at −20° C.
To allow gas chromatographic analysis of the fatty acids they must be converted to the more volatile Fatty Acid Methyl Ester (FAME) form. […]

HFD rats = test: Oral glucose tolerance test (OGTT); format: in vivo, rat
From the text: Animals were challenged with an oral glucose bolus (2 g/kg) at time=0, and dosed with either KBP-042 or saline at t=−30. FIGS. 12A, 12B and 12C show blood glucose levels during acute OGTT, OGTT after 3 weeks, and OGTT after 7 weeks respectively. FIGS. 12D, 12E and 12F show the area under the curve for acute OGTT, OGTT after 3 weeks, and OGTT after 7 weeks respectively. FIGS. 12G, 12H and 12I show insulin levels during acute OGTT, OGTT after 3 weeks, and OGTT after 7 weeks respectively. FIGS. 12J, 12K and 12L show insulin levels during acute OGTT, OGTT after 3 weeks, and OGTT after 7 weeks respectively expressed as area under the curve. n=10 for all groups except vehicle (n=12). Statistical analysis between groups were performed as a One-way ANOVA followed by Tukey's post-hoc test with the following annotations: *P<0.05, **P<0.01, ***P<0.001 vs. HFD-Vehicle. ††P<0.01, †††P<0.001 vs. Pair-fed 5 μg/kg. ‡‡P<0.01, ‡‡‡P<0.001 vs. Pair-fed 10 μg/kg, Data are expressed as mean±SEM.

Substance: AcCSNLSTCVLGKLSQELHKLQTYPRTDVGANAP-NH2 (Ac-CSNLSTCVLGKLSQELHKLQTYPRTDVGANAP-NH2; not fully specified (bridges); cysteine pairing not given here) [KBP-042, calcitonin mimetic with Cys1-Cys7 disulphide bridge]
- plasma adiponectin levels (high fat diet (HFD) rats; 1.25 μg/kg, 2.5 μg/kg, 5 μg/kg and 10 μg/kg, 56 days): significantly increased
- body weight at day 56 (high fat diet (HFD) rats; 2.5 μg/kg, 5 μg/kg and 10 μg/kg groups compared to HFD-vehicle): significantly lower
- food efficiency (high fat diet (HFD) rats; 2.5 μg/kg, 5 μg/kg and 10 μg/kg, 56 days, calculated from food intake and body weight change, significantly different from pair-fed controls): drastic reduction
- plasma leptin levels (high fat diet (HFD) rats; 10 μg/kg compared to the corresponding pair-fed control, 56 days): reached statistical significance
- liver triacylglycerols (TAG) (high fat diet (HFD) rats; 10 μg/kg, 56 days, vs HFD-Vehicle, pair-fed control not significant): significantly reduced
- weight of isolated epididymal white adipose tissue (high fat diet (HFD) rats; 10 μg/kg, 56 days, vs HFD-vehicle): significantly reduced
- weight of isolated perirenal white adipose tissue (high fat diet (HFD) rats; 2.5, 5 and 10 μg/kg, 56 days, vs HFD-vehicle, not seen in pair-fed controls): significant reduction in size
- perirenal fat depot (high fat diet (HFD) rats; 8-week study, compared to vehicle, even in a pair fed experiment): reduced
- liver triglyceride / triacylglycerol content (high fat diet (HFD) rats; compared to vehicle): trends indicated a dose-dependent effect
- liver triglyceride / triacylglycerol content (high fat diet (HFD) rats; compared to vehicle, listed as KBP peptide): reduced
- liver triglyceride / triacylglycerol content (high fat diet (HFD) rats; compared to vehicle, listed as KBP-peptide): improvement
- fatty acid composition of hepatic TAG (high fat diet (HFD) rats; 56 days): no differences in the relative distribution
- weight of inguinal white adipose tissue (high fat diet (HFD) rats; 56 days): trend towards reducing
- plasma leptin levels (high fat diet (HFD) rats; 56 days, all doses): trend towards reduced levels
- body weight (high fat diet (HFD) rats): dose-dependent and sustained reduction of body weight; also recorded: large reduction in body weight and maintained weight loss for 8 weeks
- body weight (high fat diet (HFD) rats; listed as KBP-peptide): marked weight reduction even when compared to the calorie restricted groups
- food intake (high fat diet (HFD) rats; first 6 days of treatment, 2.5, 5 and 10 μg/kg, transient): large reduction in food intake
- blood glucose (HFD rats; 30 minutes after subcutaneous administration (t=0), acute): hyperglycemic effect
- glucose tAUC (HFD rats; OGTT after 3 weeks, 2.5 μg/kg, 5 μg/kg and 10 μg/kg): significantly lowered
- glucose tolerance (tAUC) (HFD rats; OGTT at week 7, 5 μg/kg and 10 μg/kg): improved glucose tolerance
- glucose total area under the curve (tAUC) (HFD rats; acute OGTT, 10 μg/kg): significantly increased
- glucose tolerance in OGTT (HFD rats; acute dose, 10 μg/kg, compared to HFD-Vehicle): slightly impaired glucose tolerance
- insulin levels during OGTT (HFD rats; acute, first 60 minutes after glucose administration): reduced
- insulin levels during OGTT (HFD rats; after 3 weeks, all treatment groups except 0.625 μg/kg): lowered
- insulin levels during OGTT (HFD rats; week 7, three highest dose groups, first 60 minutes after glucose administration): drastically reduced
